# Earlier results in US4377591A, “7-Oxo-1-azabicyclo[3.2.0]hept-2-ene-2-carboxylic acid derivatives, their use and preparation” (Sankyo Company, Limited, priority 1980, dated 1983).
# Test system: bacteria
# Conditions: Japanese Patent Application Kokai No. 73191/76
smiles,measurement,value
"C[C@@H](O)[C@H]1C(=O)N2C(C(=O)O)=C(SCCN)C[C@H]12 [thienamycin, (5R,6S)-3-(2-aminoethylthio)-6-[1-(R)-hydroxyethyl]-7-oxo-1-azabicyclo[3.2.0]hept-2-ene-2-carboxylic acid]",antibacterial activity (in words),extraordinarily potent antibacterial activity
